# Test results taken from patent US12319681B2, “Tripartite androgen receptor eliminators, methods and uses thereof” (SPG Therapeutics, Inc., priority 2017, dated 2025).
# Legend:
# androgen receptor (AR) [1] = molecular target: androgen receptor (AR) (Homo sapiens, UniProt P10275); assay: MDA-kb2 AR luciferase reporter gene assay (1.0 nM DHT); assay type: cell-based; details: MDA-kb2, 1.0 nM DHT, 24 hours, read-out: Gene Activity Reduction
# Experimental: This example illustrates how to determine the inhibitory activity of an ARE disclosed herein using a cell-based androgen receptor transcriptional reporter assay using an engineered cell line.
# (§1) Each ARE tested was prepared in DMSO. […] Ethanol concentrations in media never exceeded 0.1%.
# (§2) To assess ARE-mediated inhibition, an AR luciferase assay was performed. After washing cells with 1×PBS, 20 μL lysis buffer (25 mM Tris/phosphate, 4 mM EGTA, 1% Triton, 10% glycerol, 2 mM DTT) was added per well, incubated for 5 minutes with gentle shaking and store at −80° C. On the day of assay, the plates were thawed to ambient temperature and 80 μL of assay buffer (25 mM glycylglycine, 15 mM MgCl2. 5 mM ATP, 0.1 mg/ml BSA) was added to each well. Plates are then processed on a microplate reader (POLARstar Omega) by injecting 100 μL of 1 mM D-luciferin per well, followed by chemiluminescence measurement of 3 seconds at onset of injection. Luciferase activity was determined, measured, and normalized to Relative Light Units (RLU). AR reporter gene activity reduction values were calculated as follows: AR reporter gene activity=1−(average signal (treatment group)/average signal (treatment group without drug).
# androgen receptor (AR) [2] = molecular target: T1, androgen receptor (AR) (Homo sapiens, UniProt P10275); assay: Keratinocyte AR luciferase reporter gene assay (Example 10); assay type: cell-based; details: keratinocytes, 1.0 nM DHT, 24 hours, read-out: Gene Activity Reduction
# T1 construct: human keratinocytes transfected with an AR luciferase reporter gene; endogenous in cells; host or cells: normal human adult primary epidermal keratinocytes (ATCC PCS-200-011)
# T1 sequence (P10275 1-920): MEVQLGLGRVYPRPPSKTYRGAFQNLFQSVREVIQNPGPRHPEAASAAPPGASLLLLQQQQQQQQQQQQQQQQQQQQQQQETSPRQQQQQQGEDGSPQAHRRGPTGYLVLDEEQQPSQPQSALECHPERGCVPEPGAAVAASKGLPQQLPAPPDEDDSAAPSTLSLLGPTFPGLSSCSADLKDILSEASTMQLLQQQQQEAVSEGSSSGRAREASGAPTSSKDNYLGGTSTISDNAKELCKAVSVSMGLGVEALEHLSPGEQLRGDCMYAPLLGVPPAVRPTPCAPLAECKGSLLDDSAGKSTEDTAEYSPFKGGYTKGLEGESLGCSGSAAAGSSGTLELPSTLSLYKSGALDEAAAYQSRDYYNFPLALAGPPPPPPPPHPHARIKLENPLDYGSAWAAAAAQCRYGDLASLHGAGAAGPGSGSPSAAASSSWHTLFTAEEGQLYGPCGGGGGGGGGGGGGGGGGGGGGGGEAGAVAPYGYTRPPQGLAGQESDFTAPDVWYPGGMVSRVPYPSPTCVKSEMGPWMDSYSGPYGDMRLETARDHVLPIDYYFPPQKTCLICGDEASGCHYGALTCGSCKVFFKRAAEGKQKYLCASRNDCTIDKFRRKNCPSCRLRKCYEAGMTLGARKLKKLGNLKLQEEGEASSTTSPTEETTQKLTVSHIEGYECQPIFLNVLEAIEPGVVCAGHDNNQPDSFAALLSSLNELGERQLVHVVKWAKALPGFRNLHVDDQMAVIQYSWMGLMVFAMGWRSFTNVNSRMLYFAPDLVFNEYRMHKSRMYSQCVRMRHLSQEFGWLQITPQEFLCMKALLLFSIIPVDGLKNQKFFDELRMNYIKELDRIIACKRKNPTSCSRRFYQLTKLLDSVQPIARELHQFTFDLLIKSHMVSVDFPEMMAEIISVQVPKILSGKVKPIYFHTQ
# Experimental: as §1, §2
# androgen receptor (AR) [3] = molecular target: T1, androgen receptor (AR); assay: Keratinocyte AR protein level ELISA (Example 10); assay type: cell-based; details: 24 h, keratinocytes, AR protein level by ELISA, read-out: AR Reduction
# Experimental: as §1
# To assess levels of AR, an ELISA was performed.
# [4] = tested on: MDA-kb2 mammary gland breast cancer cell line; assay: MDA-kb2 cell viability (Trypan Blue exclusion); details: MDA-kb2, 1.0 nM DHT, 24 hours
# Experimental: For the MDA-kb2 assay, MDA-kb2 mammary gland breast cancer cell line was maintained in L-15 media (Gibco) supplemented with 10% FBS, 100 U/mL penicillin, 100 μg/mL streptomycin, and 0.25 μg/mL amphotericin B at 37° C., without CO2. For experiments, cells were plated at 1.0×10^4 cells (50% confluence) per well in 100 μL of medium in 96-well plates. When cells were attached (after 6 hours), medium was removed and replaced with dosing medium containing 10% charcoal stripped FBS.
# A 5α-Androstan-17β-ol-3-one (DHT) stock solution was prepared at 1,000× in ethanol. Each ARE tested was prepared in DMSO. Dosing medium was prepared at the time of treatment by serial diluting stock solution into medium. Ethanol concentrations in media never exceeded 0.1%. […] Negative control wells contained 100 μL medium/well with 1 μL of ethanol/mL of medium and an appropriate amount of DMSO. Each plate also contained 1.0 nM DHT with an ARE or without an ARE as a positive control. Cells were incubated 24 hours at 37° C. without CO2.
# (§3) To assess for cell viability, cells were first visually examined under a phase-contrast microscope to record cell confluence, morphological changes, and presence of drug crystallization as well as to observe signs of cytotoxity such as, e.g., detachment, vacuolization, membrane degradation, or lack of phase brightness. After microscopic inspection, a Trypan Blue exclusion assay was performed to assess cell viability and cell number for each well. Each well was washed with 0.5 mL volume of PBS. 30 µL of Trypan Blue was added to each well for 5-10 minutes. Total cell number and total viable cell number will be counted from 1 number of fields per well, in triplicate.
# [5] = Keratinocyte Cell Viability Assay (Example 11, 72 hours); details: human
# Experimental: (§4) For the Keratinocyte assay, normal Human Adult Primary Epidermal Keratinocyte cell line (ATCC PCS-200-011) was maintained in EPIUFE® Medium, with 60 μM calcium (Thermo MEPISOOCA) supplemented with Human Keratinocyte Growth Supplement, 100 U/mL penicillin, and 100 μg/mL streptomycin at 37° C. with 5% C02. For experiments, cells were seeded at 70% confluence per well in 100 μL of medium in 96-well plates. Reverse transfection was done on the cells using Lipofectamine 3000 (Life Technologies) with plasmids according to manufacturer's instructions. Briefly, 0.3 μL transfection reagent per 100 ng DNA were incubated with P3000 reagent and Opti-Mem prior to addition of cells. After 16 hours, medium was removed and replaced with dosing medium.
# (§5) Each ARE tested was prepared in DMSO. Dosing medium was prepared at the time of treatment by serial diluting stock solution into medium. Ethanol concentrations in media never exceeded 0.1%. […] Negative control wells contained 100 L medium/well with 1 μL of ethanol/mL of medium and an appropriate amount of DMSO. […] Cells were incubated 72 hours at 37° C. without CO2.
# [6] = tested on: normal Human Adult Primary Epidermal Keratinocyte cell line; assay: as above; details: keratinocytes, 72 hours, 0 μM = 100
# Experimental: as §4, §5
# [7] = tested on: normal Human Adult Primary Epidermal Keratinocyte cell line; assay: Keratinocyte cell viability (Trypan Blue exclusion, Example 10); details: keratinocytes, 1.0 nM DHT, 24 hours
# Experimental: For the Keratinocyte assay, normal Human Adult Primary Epidermal Keratinocyte cell line (ATCC PCS-200-011) was maintained in EPIUFE® Medium, with 60 μM calcium (Thermo MEPISOOCA) supplemented with Human Keratinocyte Growth Supplement, 100 U/mL penicillin, and 100 μg/mL streptomycin at 37° C. with 5% C02. For experiments, cells were seeded at 70% confluence per well in 100 μL of medium in 96-well plates. […] After 16 hours, medium was removed and replaced with dosing medium.
# A 5α-Androstan-17β-ol-3-one (DHT) stock solution was prepared at 1,000× in ethanol. […] Dosing medium was prepared at the time of treatment by serial diluting stock solution into medium. Ethanol concentrations in media never exceeded 0.1%. […] Negative control wells contained 100 μL medium/well with 1 μL of ethanol/mL of medium and an appropriate amount of DMSO. Each plate also contained 1.0 nM DHT with an ARE or without an ARE as a positive control. Cells were incubated 24 hours at 37° C. without CO2.
# as §3
structure (smiles),measurement,setting,value
O=C(CC12CC3CC(CC(C3)C1)C2)NCCOCCOCC(=O)N1CCN(c2ccc(OC[C@H]3CO[C@](Cn4ccnc4)(c4ccc(Cl)cc4Cl)O3)cc2)CC1 [SPG-005],inhibition at 0.1 µM,androgen receptor (AR) [1]; 0.1 μM,9%
same,inhibition at 1 µM,androgen receptor (AR) [1]; 1.0 μM,14%
same,inhibition at 3 µM,androgen receptor (AR) [1]; 3.0 μM,18%
same,inhibition at 10 µM,androgen receptor (AR) [1]; 10 μM,80%
same,inhibition at 0.1 µM,androgen receptor (AR) [2]; 0.1 μM,21%
same,inhibition at 1 µM,androgen receptor (AR) [2]; 1.0 μM,29%
same,inhibition at 3 µM,androgen receptor (AR) [2]; 3.0 μM,31%
same,inhibition at 10 µM,androgen receptor (AR) [2]; 10 μM,90%
same,inhibition at 0.1 µM,androgen receptor (AR) [3]; 0.1 μM,12%
same,inhibition at 1 µM,androgen receptor (AR) [3]; 1.0 μM,19%
same,inhibition at 3 µM,androgen receptor (AR) [3]; 3.0 μM,23%
same,inhibition at 10 µM,androgen receptor (AR) [3]; 10 μM,65%
same,Cell Viability,[4]; 0.1 μM,98%
same,Cell Viability,[4]; 1.0 μM,98%
same,Cell Viability,[4]; 3.0 μM,98%
same,Cell Viability,[4]; 10 μM,98%
same,IC50 at 72 h,[5],2000 nM
same,Cell Viability,[6]; 0.62 μM,77.01 ± 0.64
same,Cell Viability,[6]; 1.85 μM,62.57 ± 2.06
same,Cell Viability,[6]; 5.56 μM,1.98 ± 8.39
same,Cell Viability,[6]; 16.67 μM,0.11 ± 1.77
same,Cell Viability,[6]; 50 μM,0.09 ± 6.41
same,Cell Viability,[6]; […],93.72 ± 1.69
same,Cell Viability,[7]; 0.1 μM,94%
same,Cell Viability,[7]; 1.0 μM,92%
same,Cell Viability,[7]; 3.0 μM,93%
same,Cell Viability,[7]; 10 μM,94%
